Legend:
Assay in all cases: NCI60 one-dose screen
Type in all cases: cell-based
[1] = tested on: A498; conditions: Homo sapiens; A498, 10 μM; read-out: Growth percent
Method: (§1) The screening results are presented in the Supplementary Materials (Table S1), where the cytotoxicity was determined for the 10 µM concentration. […] The negative numbers indicate significant decreases in the cell number. […] Compared to the reference chrysin (2), all phosphonium hybrids (3a–h) had significant antiproliferative activities. […] At the same time, it should be noted that more than 60% average reduction was also obtained in the case of the other examined conjugates (3a–h).
(§2) A detailed description of the NCI screening procedures, including the one-dose and five-dose tests, can be found in the Supplementary Materials, on the website of NCI [39], and in our previous work.
(§3) A detailed description of the NCI screening procedures can also be found on the website of NCI [39], and in our […]
(§4) All candidates were examined at first at a single high dose (10 μM) in the full NCI60 cell panel. The value reported for the one-dose test is growth relative to the no-drug control and relative to the time zero number of cells. This made possible the disclosure of both growth inhibition (numbers between 0 and 100) and lethality (numbers less than 0). For example, a value of 100 means no growth inhibition. A value of 20 would mean 80% growth inhibition. A value of 0 means no net growth over the course of the analysis. A value of −20 would mean 20% lethality. A value of −100 means all cells are dead. […]
(§5) concentration levels. The human tumor cell lines of the cancer screening panel were grown in RPMI 1640 medium containing 5% fetal bovine serum and 2 mM l-glutamine. Characteristically, cells were injected in 96-well microtiter plates in 0.1 mL at plating densities ranging from 5000 to 40,000 cells/well, depending on the doubling time of individual cell lines. After cell inoculation, the microtiter plates were incubated at 37 °C, 5% carbon dioxide, 95% air, and 100% relative humidity for 24 hours before the addition of tested compounds. After 24 hours, 2 plates of each cell line were fixed in situ with Cl3COOH (TCA), to represent a measurement of the cell population for each cell line at the time of drug addition (tz). Tested compounds were solubilized in DMSO at 400-fold the desired final maximum test concentration and stored frozen before application. In the course of the drug addition, an aliquot of frozen concentrate was thawed and diluted to twice the desired final maximum test concentration with a complete medium containing 50 μg mL−1 gentamicin. Additional four, 10-fold or ½ log serial dilutions were produced to furnish a total of five drug concentrations plus control. Aliquots of 0.1 mL of these different drug dilutions were added to the appropriate microtiter wells already containing 0.1 mL of medium, resulting in the required final drug concentrations.
(§6) Following drug addition, the plates were incubated at 37 °C, 5% carbon dioxide, 95% air, and 100% relative humidity for an additional 48 hours. For adherent cells, the test was finished by the addition of cold Cl3COOH. Cells were fixed in situ by the addition of 50 μL of cold 50% (w/v) Cl3COOH, and incubated at 4 °C for 1 hour. The supernatant was discarded, and the plates were washed with H2O (5×) and dried in air. Sulforhodamine B (SRB) solution (0.1 mL) at 0.4% (w/v) in 1% CH3COOH was added to each well, and plates were incubated at RT for 10 min. After staining, the unbound dye was removed by washing five times with 1% CH3COOH, and the plates were dried in the air. The bound stain is afterward solubilized with a 10 mM trizma base, and the absorbance is read on an automated plate reader at λ = 515 nm. Utilizing the seven absorbance measurements [time zero (tz), control growth (c), and test growth in the presence of the drug at the five concentration levels (ti)], the percentage growth was determined at each of the drug concentration levels. Growth inhibition (%) was calculated as:
(§7) [(ti − tz)/(c − tz)] × 100, for concentrations where ti ≥ tz (1) […]

[2] = tested on: CAKI-1; conditions: Homo sapiens; CAKI-1, 10 μM; read-out: Growth percent
Method: as §1, §2, §3, §4, §5, §6, §7

[3] = tested on: EKVX; conditions: Homo sapiens, read-out: Growth percent
Method: as §1, §2, §3, §4, §5, §6, §7

[4] = tested on: HCT-116; conditions: Homo sapiens; HCT-116, 10 μM; read-out: Growth percent
Method: as §1, §2, §3, §4, §5, §6, §7

[5] = tested on: HL-60(TB); conditions: Homo sapiens, read-out: Growth percent
Method: as §1, §2, §3, §4, §5, §6, §7

[6] = tested on: IGROV1; conditions: Homo sapiens, IGROV-1; IGROV1, 10 μM; read-out: Growth percent
Method: as §1, §2, §3, §4, §5, §6, §7

[7] = tested on: LOX IMVI; conditions: Homo sapiens, read-out: Growth percent
Method: as §1, §2, §3, §4, §5, §6, §7

[8] = tested on: MCF7; conditions: Homo sapiens; MCF7, 10 μM; read-out: Growth percent
Method: as §1, §2, §3, §4, §5, §6, §7

[9] = tested on: MDA-MB-231/ATCC; conditions: Homo sapiens, read-out: Growth percent
Method: as §1, §2, §3, §4, §5, §6, §7

[10] = tested on: MOLT-4; conditions: Homo sapiens; MOLT-4, 10 μM; read-out: Growth percent
Method: as §1, §2, §3, §4, §5, §6, §7

[11] = tested on: NCI-H23; conditions: Homo sapiens; NCI-H23, 10 μM; read-out: Growth percent
Method: as §1, §2, §3, §4, §5, §6, §7

[12] = tested on: NCI-H322M; conditions: Homo sapiens, read-out: Growth percent
Method: as §1, §2, §3, §4, §5, §6, §7

[13] = tested on: NCI-H522; conditions: Homo sapiens; NCI-H522, 10 μM; read-out: Growth percent
Method: as §1, §2, §3, §4, §5, §6, §7

[14] = tested on: OVCAR-3; conditions: Homo sapiens; OVCAR-3, 10 μM; read-out: Growth percent
Method: as §1, §2, §3, §4, §5, §6, §7

[15] = tested on: OVCAR-8; conditions: Homo sapiens; OVCAR-8, 10 μM; read-out: Growth percent
Method: as §1, §2, §3, §4, §5, §6, §7

[16] = tested on: SF-268; conditions: Homo sapiens; SF-268, 10 μM; read-out: Growth percent
Method: as §1, §2, §3, §4, §5, §6, §7

[17] = tested on: SF-539; conditions: Homo sapiens; SF-539, 10 μM; read-out: Growth percent
Method: as §1, §2, §3, §4, §5, §6, §7

[18] = tested on: SK-MEL-28; conditions: Homo sapiens; SK-MEL-28, 10 μM; read-out: Growth percent
Method: as §1, §2, §3, §4, §5, §6, §7

[19] = tested on: SN12C; conditions: Homo sapiens, read-out: Growth percent
Method: as §1, §2, §3, §4, §5, §6, §7

[20] = tested on: SNB-19; conditions: Homo sapiens; SNB-19, 10 μM; read-out: Growth percent
Method: as §1, §2, §3, §4, §5, §6, §7

[21] = tested on: UO-31; conditions: Homo sapiens; UO-31, 10 μM; read-out: Growth percent
Method: as §1, §2, §3, §4, §5, §6, §7

Row | Structure (SMILES) | activity at 10 µM [1] | activity at 10 µM [2] | activity at 10 µM [3] | activity at 10 µM [4] | activity at 10 µM [5] | activity at 10 µM [6] | activity at 10 µM [7] | activity at 10 µM [8] | activity at 10 µM [9] | activity at 10 µM [10] | activity at 10 µM [11] | activity at 10 µM [12] | activity at 10 µM [13] | activity at 10 µM [14] | activity at 10 µM [15] | activity at 10 µM [16] | activity at 10 µM [17] | activity at 10 µM [18] | activity at 10 µM [19] | activity at 10 µM [20] | further results
1 | O=c1cc(-c2ccccc2)oc2cc(OCCCC[P+](c3ccc(F)cc3)(c3ccc(F)cc3)c3ccc(F)cc3)cc(O)c12 [3d] | -87.6% | -93.6% | -83.9% | -66.6% | -46.9% | -64% | -93.7% | -84.8% | -95% | -24.3% | -93% | -88.3% | -74.4% | -72% | -45.6% | -71.6% | -89.6% | -92% | -82.1% | -97.4% | activity at 10 µM [21]: -86.9%
2 | O=c1cc(-c2ccccc2)oc2cc(OCCCC[P+](C3CCCCC3)(C3CCCCC3)C3CCCCC3)cc(O)c12 [3e] | -87.6% | -90.8% | -83.5% | -62% | -20.6% | -59.4% | -90.5% | -77% | -81.6% | -60.6% | -88.5% | -85.2% | -88% | -81.9% | -86.4% | -67.5% | 87.1% | -41.4% | -57% | -87.6% | activity at 10 µM [21]: -92.5%
3 | COc1c(C)cc([P+](CCCCOc2cc(O)c3c(=O)cc(-c4ccccc4)oc3c2)(c2cc(C)c(OC)c(C)c2)c2cc(C)c(OC)c(C)c2)cc1C [3f] | -83.4% | -51.6% | -76.5% | -47.6% | -27.7% | -38% | -68.7% | -58% | -74.8% | -42.5% | -77.3% | -62.2% | -77.3% | -69.8% | -68.1% | -66.5% | -89.2% | -85.7% | -77.4% | -76.8% | activity at 10 µM [21]: -59.6%
4 | Cc1ccccc1[P+](CCCCOc1cc(O)c2c(=O)cc(-c3ccccc3)oc2c1)(c1ccccc1C)c1ccccc1C [3g] | -99.1% | -97.2% | -98.4% | -94.5% | -97.4% | -99.1% | -97.5% | -95.4% |  | -98.6% | -98.4% | -98.2% | -98.5% | -99.1% | -95.9% | -97.9% | -97.7% | -98.4% | -97% | -97.4% | 

Reference: publication PMC12652692, “Synthesis and In Vitro Anticancer Evaluation of Novel Phosphonium Derivatives of Chrysin” (International Journal of Molecular Sciences, 2025)
